pIC50: −log10 of the molar value.
How the values were obtained:
HCC1937 = test: LDH (lactate dehydrogenase) releasing assay; type: cell-based, Human; conditions: LDH release and immunoblotting
Experimental: Figure 5 The cytotoxic activity of analogs depends on particle formation like AG-08. […] The level of released LDH was calculated as fold change relative to vehicle. […] After 24 h, cell viability was measured. […] Cell viability after 24 h was measured. The reported values correspond to mean values ± standard deviation (± s.d) of three experiments. ***p < 0.001, ****p < 0.0001.
LDH-Cytotoxicity Colorimetric Assay Kit II (Biovision) was used to detect LDH releasing. Briefly, HCC1937 were seeded on 96 well plate. After treatment with compounds, cells were centrifuged at 600×g for 10 min. 10 µl supernatant were transferred into clean 96 well plate and added into 100 µl LDH Reaction Mix. Following 30 min incubation at room temperature, 10 µl stop solution were added, and absorbance was measured at 450 nm (Varioscan, Thermo Fisher Scientific, US).

EEA1 = EEA1 immunofluorescence; type: cell-based, Human; conditions: HCC1937, AG-08 16 h
Experimental: Figure 2 AG-08 is related with endosomal pathway. (A) After pre-treatment with 20 µM pitstop II, 0.5 mM methyl-β-cyclodextrin (MβC), 80 µM dynasore, 20 µM cytochalasin d (Cyto D) or 20 µM chlorpromazine (CPZ) for 1 h, HCC1937 cells were treated with 8 µM AG-08 for 24 h. Then cell viability was determined by using WST-1. Reported values were normalized on cells treated with only AG-08. Error bars are the standard deviations (n = 3). p-values were calculated with respect to AG-08 treated cells by two-tailed equal variance Student’s t-test (*p < 0.05, ***p < 0.001, ****p < 0.0001) (B) HCC1937 cells were treated with brefeldin A (Bref A) for 1 h and then treated with 8 µM AG-08 for 24 h. Error bars represent standard deviations (n = 3). p-values were calculated with respect to AG-08-treated cells (*p < 0.05, **p < 0.005, ***p < 0.001). (C) Following AG-08 treatment for 16 h, EEA1 proteins were stained using the anti-EEA1 antibody in HCC1937 cells (scale bar = 25 µm).
Cells were grown on glass coverslips and treated with AG-08. At the end of treatments, cells were washed twice with ice-cold PBS and fixed with 4% paraformaldehyde in PBS for 30 min at 4 °C. After washing 6 times with PBS, cells were permeabilized and blocked with 0.01% saponin and 0,01% BSA in PBS. […] Mounted samples were analyzed by fluorescence microscopy (Olympus IX70, Japan).

Calnexin = Calnexin immunofluorescence; type: cell-based; conditions: AG-08 treated cells
Text: Figure 3 mRNA microarray analysis was used to identify differentially expressed genes via AG-08 treatment. (A) Heatmap representing the expressions of 193 genes with significant different expression in AG-08 treated cells compared with control. Heatmap was generated by GraphPad Prism version 8 (https://www.graphpad.com/scientific-software/prism/). (B) Protein–protein network analysis was formed via STRING. The thickness of the connecting lines indicates the strength of data support for physical and/or functional associations. (C) Pathway enrichment was determined using GO, KEGG, and Reactome pathway analysis. […] Size of circle represents the significance of enrichment. (D) The protein levels of CHOP were determined via IB. 0.5 µg/ml tunicamycin (Tun) was used as positive control. The experiments were repeated three times independently; with one representative result shown. (E) mRNA level of the CHOP was investigated using quantitative PCR (q-RTPCR). Error bars represent standard error (s.e.). p-values were calculated with respect to vehicle-treated cells by one-way Anova test. (**p < 0.005, ****p < 0.0001). (F) The expression and localization of Calnexin protein were evaluated using immunofluorescence via anti-Calnexin antibody (scale bar 25 µm).
Cells were grown on glass coverslips and treated with AG-08. […] Mounted samples were analyzed by fluorescence microscopy (Olympus IX70, Japan).

MCF7 = test: Cytotoxicity analysis (WST-1); type: cell-based; conditions: Homo sapiens, MCF7, 48 h
Experimental: (§1) HCC1937 (Human breast cancer line), HeLa (Human […]), A549 (Human lung adenocarcinoma), MRC-5 (Human lung fibroblasts), MCF7 (Human breast cancer cells), A549 (human lung carcinoma) were obtained from American Type Culture Collection and maintained as exponentially growing monolayers by culturing according to the supplier’s instructions. MCF7, HeLa, MRC-5, and A549 cell lines were cultured and routinely passaged in DMEM media containing 10% FBS, while HCC1937 cell lines were propagated in RPMI 1640 containing 10% FBS.
(§2) Following the treatment with compounds or vehicle for 48 h, the 10% WST-1 (Roche, Switzerland) in medium was replaced in each 96 well. After 4 h incubation with WST-1 reagent at 37 °C and 5% CO2, the absorbance was measured using a microplate reader at 440 nm (Varioscan, Thermo Fisher Scientific, US). Graph Pad Prism 5 (San Diego, CA, US.) was used to calculate the IC50, which represents the concentration of compounds that is required for 50% inhibition in comparison to the vehicle-treated controls. The experiments were repeated three times independently.

MRC-5 = test: Cytotoxicity analysis (WST-1); type: cell-based; conditions: Homo sapiens, MRC5, MRC-5 normal cell line, 48 h
Experimental: as §1, §2

HeLa = test: Cytotoxicity analysis (WST-1); type: cell-based; conditions: Homo sapiens, 48 h
Experimental: as §1, §2

Cc1ccc(S(=O)(=O)OC2CCC3(C)C4=CCC5(C)C(C6(C)CCC(C(C)(C)O)O6)C(O)CC5(C)C4C=CC3C2(C)C)cc1 (stereo not drawn) [AG-08]
mode of cell death (HCC1937): induced necrotic cell death
EEA1 positive vesicles (EEA1): dramatic decrease
intensity of calnexin staining (Calnexin): significantly increased
pIC50 (MCF7): 5.42
pIC50 (MRC-5): 5.59
pIC50 (HeLa): 5.24
